Measured values published in patent publication US6548715B1, “Structural analogues of vitamin D” (Laboratoire Theramex S.A., priority 1993, dated 2003).

Key:
HL-60 cells = assay: HL-60 cell differentiation (NBT reduction); assay type: cell-based; details: % of the activity of 1α,25-(OH)2D3 at 50% of its activity (B50); human leukemia cells
Experimental: (§1) HL-60 cells were seeded at 1.2×10^5 cells/ml and 1α,25-(OH)2D3 or its anologs were added in ethanol (final concentration <0.2%) in RPMI 1640 medium supplemented with 10% heat-inactivated fetal calf serum (FCS) for 4 d at 37° C. Cells were then assayed for maturation by NBT reduction assay as described (22) using a hemacytometer, or for proliferation by cell counting and [^3H] thymidine incorporation. MG 63 cells, seeded at 5×10^3 cells/ml in 96 well flat bottomed culture plates (Falcon, Becton Dickinson, N.J.) in a volume of 0.2 ml of DMEM and 2% FCS, were incubated with 1α,25-(OH)2D3 or its analogues for 72 h. Osteocalcin was then measured in the culture medium using a homologous human osteocalcin RIA (39). Breast carcinoma cells (MCF-7 or GR) were grown in DMEM/nut.mix F-12 (HAM) medium supplemented with 10% FCS. Cells (5000/Well) were incubated during 24 h in 96 well tissue culture plates (Falcon 3072) followed by a 72 h incubation with/without 1α,25-(OH)2D3 or analogues. The cells were then incubated with [^3H]thymidine (1 μCi/well) for 4 h and harvested thereafter in NaOH (0.1 M) and the radioactivity counted. The protein content of the cells was measured by the Pierce BCA protein assay (Rockford, Ill.).

vitamin D receptor = molecular target: T1, vitamin D receptor (Sus scrofa, UniProt A3RGC1); details: % of the activity of 1α,25-(OH)2D3 at 50% of its activity (B50); 1α,25-(OH)2D3 assigned 100%
T1 sequence (A3RGC1 1-427): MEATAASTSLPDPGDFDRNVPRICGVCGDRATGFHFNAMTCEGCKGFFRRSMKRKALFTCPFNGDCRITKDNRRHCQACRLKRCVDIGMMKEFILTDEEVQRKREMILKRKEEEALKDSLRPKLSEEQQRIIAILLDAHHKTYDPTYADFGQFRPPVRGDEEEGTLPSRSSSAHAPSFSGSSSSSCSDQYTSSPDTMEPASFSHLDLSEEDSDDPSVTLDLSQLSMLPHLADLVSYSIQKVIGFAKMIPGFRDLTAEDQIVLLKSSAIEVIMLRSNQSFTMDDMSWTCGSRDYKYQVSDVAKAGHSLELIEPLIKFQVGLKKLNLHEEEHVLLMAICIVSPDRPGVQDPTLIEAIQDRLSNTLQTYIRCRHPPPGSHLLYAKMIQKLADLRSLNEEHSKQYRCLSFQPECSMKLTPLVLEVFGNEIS

MCF-7 cells = assay: MCF-7 breast cancer cell proliferation ([3H]thymidine incorporation); assay type: cell-based; details: % of the activity of 1α,25-(OH)2D3 at 50% of its activity (B50); human breast cancer cells
Experimental: as §1

[1] = system: vitamin D-deficient chicks; assay: Calcemic effect in vitamin D-deficient chicks (serum calcium); assay type: in vivo, chick; details: % of the activity of 1α,25-(OH)2D3 at 50% of its activity (B50); vitamin D-deficient chicks injected 10 consecutive days
Experimental: The antirachitic activity of the analogues was tested in 3 weeks old vitamin D-deficient chicks injected for 10 consecutive days with 1α,25-(OH)2D3 or its analogues (22,23). Serum calcium (by atomic absorptiometry) and osteocalcin (by specific RIA), duodenal calbindin D-28K (by RIA) and bone calcium content were measured. The hypercalcemic effect of the most interesting anologues was also tested in vitamin D-replete normal NMRI mice by daily sc injection of 1α,25-(OH)2D3, its analogues or the solvent for 7 consecutive days, using serum, bone and urinary calcium excretion and serum osteocalcin (by specific mouse RIA) as parameters (40).

[2] = system: human normal keratinocytes; assay: Human keratinocyte proliferation ([3H]thymidine incorporation); assay type: cell-based; details: % of the activity of 1α,25-(OH)2D3 at 50% of its activity (B50)
Experimental: to evaluate the effects on cell proliferation of non-malignant cells and especially to evaluate their potential for use for dermatological disorders, the new compounds were tested in cultures of human normal keratinocytes.
Human skin keratinocytes were isolated and cultured using a modification of the method of Kitano and Okada (38).
Briefly, the skin from biopsies of patients with breast tumors, was cutted into pieces measuring 3-5 mm and soaked overnight at 4° C. in a solution of dispase (20 Boehringer units/ml). The epidermis was peeled from the dermis, washed with calcium- and magnesium-free phosphate buffered saline and incubated and shaked in a 0.25% trypsin solution for 10 min at room temperature. The reaction was then stopped by addition of PBS containing 10% FCS. The cells were collected after centrifugation at 4° C. for 10 min at 800 rpm. After an additional washing with PBS, the pellet was suspended in culture medium into 25 cm^2 primaria flasks from Becton Dickinson. The keratinocytes were cultivated at 37° C. in an atmosphere of 5% CO2 in air. A few hours later, the medium was replaced by new one. The medium [Keratinocyte Medium from Gibco containing Epidermal Growth Factor (5 ng/ml), Bovine Pituitary Extract (35-50 μg/ml) and antibiotics] was renewed every other day until confluency.
Keratinocytes were cultured in 96-well plate and, after 24 hours, were treated with various concentrations of vitamin D analogues, followed by pulse labelling with 1 μCi of [^3H]thymidine for 3 hours. Cultures were washed 3 times with PBS and twice with 10% (v/v) ice cold trichloroacetic acid. Cells were solubilized with 1 M NaOH and radioactivity was counted in a scintillation counter.

MG-63 cells = assay: MG-63 osteosarcoma cells, osteocalcin secretion; assay type: cell-based; details: % of the activity of 1α,25-(OH)2D3 at 50% of its activity (B50); human osteosarcoma cells
Experimental: as §1

[3] = molecular target: T2, human DBP (vitamin D binding protein) (Homo sapiens, UniProt P02774); assay: Relative affinity for purified human vitamin D-binding protein (hDBP); details: % of the activity of 1α,25-(OH)2D3 at 50% of its activity (B50)
T2 sequence (P02774 17-474): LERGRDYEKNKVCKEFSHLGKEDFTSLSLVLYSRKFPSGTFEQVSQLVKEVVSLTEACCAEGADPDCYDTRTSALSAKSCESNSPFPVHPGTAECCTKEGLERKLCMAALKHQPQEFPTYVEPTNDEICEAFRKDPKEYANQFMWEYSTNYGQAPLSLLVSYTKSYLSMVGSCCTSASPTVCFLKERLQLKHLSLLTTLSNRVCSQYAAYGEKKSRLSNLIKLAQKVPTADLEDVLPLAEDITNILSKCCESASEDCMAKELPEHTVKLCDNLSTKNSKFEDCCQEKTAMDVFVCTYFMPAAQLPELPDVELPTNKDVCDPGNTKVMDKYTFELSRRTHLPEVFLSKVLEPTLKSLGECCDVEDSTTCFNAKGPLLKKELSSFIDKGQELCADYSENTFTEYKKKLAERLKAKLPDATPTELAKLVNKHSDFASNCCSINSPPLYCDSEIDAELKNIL

[4] = system: spontaneously diabetic NOD mice; assay: Prevention of autoimmune disease recurrence after syngeneic islet transplantation in diabetic NOD mice; assay type: in vivo; details: Nr 46 10 μg/kg/2d
Text: To evaluate the immune potential of the analogues the well known model of prevention of autoimmune disease recurrence in the spontaneously diabetic NOD mice was used. When syngeneic NOD islets are transplanted under the kidney capsule of spontaneously diabetic NOD mice, diabetes is only cured for some days, since in the absence of immunomodulatory treatment, the newly transplanted islets are destroyed within 14 days.

| SMILES | Cell differentation/cell proliferation HL-60 (HL-60 cells) [%] | Affinity for pig receptor (vitamin D receptor) [%] | Cell differentation/cell proliferation MCF-7 (MCF-7 cells) [%] | Ca serum chick [1] [%] | Cell differentation/cell proliferation keratinocytes [2] [%] | Cell differentation/cell proliferation MG-63 (MG-63 cells) [%] | Affinity for human DBP [3] [%] | Mean survival of islets and range [4] |
| --- | --- | --- | --- | --- | --- | --- | --- | --- |
| CC(CCCC(C)(C)O)C1CCC2C(=CC=C3CC(O)CC(O)C3)CCCC21C (stereo not drawn) [Compound 43] | 40 | 25 | 20 | 0.1 | 100 | 100 | 7 | – |
| CC(CC#CC(C)(C)O)C1CCC2C(=CC=C3CC(O)CC(O)C3)CCCC21C (stereo not drawn) [Compound 44] | 320 | 26 | 1000 | 0.1 | 700 | 150 | 2 | – |
| CC(CC#CC(C)(C)O)C1CCC2C(=CC=C3CC(O)CC(O)C3)CCCC21C (stereo not drawn) [Compound 46] | 1650 | 30 | 1950 | 2 | 1000 | 500 | <0.5 | 19 (6-51) d |
| CCC(O)(C#CCC(C)C1CCC2C(=CC=C3CC(O)CC(O)C3)CCCC21C)CC (stereo not drawn) [Compound 48] | 2200 | 40 | 1500 | 1 | 350 | 800 | 0.3 | – |
| CC1=C(/C=C\C2=CCC[C@](C)([C@H](C)[C@H](C)CC[C@@H](O)C(C)C)C2)C[C@@H](O)C[C@@H]1O [Compound 58] | 650 | 3 | 700 | <1 | 1000 | 115 | 1 | – |
